In patent publication US20210301315A1, “METHODS FOR TREATING POLYMICROBIAL INFECTIONS” (priority 2017, published 2021):
“Also recorded” adds a separate entry of the source.

What was measured:
E. coli and P. mirabilis = test: P-AST species-pair interaction on antibiotic resistance (logistic regression, HSAP/UP); assay type: cell-based, Escherichia coli; Proteus mirabilis; details: E. coli and P. mirabilis together v. expected from each species alone (HSAP/UP)
Experimental: (§1) The Pooled Antibiotic Sensitivity Test (P-AST) is permitting the organisms identified to grow in the presence of antibiotics and measuring the minimum concentration of antibiotic to inhibit growth. Antibiotic susceptibility testing is performed when at least a single organism within a pool of organisms reaches a certain threshold, (e.g., at least 3,000 cells/ml, at least 5,000 cells/ml, at least 10,000 cells/ml, etc.) and can grow in the presence of the antibiotic in the assay within the time of testing. (Note: 10,000 cells/ml is equivalent to 10,000 CFU/ml.) The present invention is not limited to a 10,000 cells/mL threshold. These pools of organism(s) are inoculated into growth medium then placed onto an antibiotic laden “spec plate” that is then incubated and analyzed for growth. The breakpoints are derived from the CLSI breakpoints.
(§2) P-AST was performed by aliquoting 1 mL of patient urine specimen into a 1.7 mL microcentrifuge tube. After centrifugation, the supernatant was aspirated and discarded, leaving approximately 100 or 50 μL (minimum volume left above pellet created from centrifugation) of patient sample in the microcentrifuge tube. One mL of Mueller Hinton Growth Media was then aliquoted into the patient sample in the microcentrifuge tube and the tubes were incubated at 35° C. in a non-CO2 incubator for 6 hours. Non-inoculated liquid MH-media is incubated as the negative control to confirm the media used is not contaminated. Those samples that reached a minimum threshold of 10,000 cells/mL were then diluted by aliquoting 0.5 mL of sample into a 50 mL conical tube containing Mueller Hinton Growth Media (in this example, the dilution was 1:60, e.g., 500 μL was added to 29.5 mL). 96-well plates pre-loaded with antibiotics were then inoculated with diluted samples and incubated along with control plates for 12-16 hours at 35° C. in a single layer. Optical density of samples was then read on a DensiCHEK plate reader. The DensiCHEK instrument is used to measure the concentration of turbid samples considered positive because PCR-ID result was >=10,000 cells/mL. The turbid samples were diluted/normalized to the same concentration and then added to a volume of liquid, e.g., 29.5 mL of liquid MH-media. A spectrophotometer (plate reader) is used to measure optical density of the samples in wells of antibiotics and inoculum in order to determine if there is growth in a well. The present invention is not limited to a concentration of 10,000 cells/mL.
(§3) Interactions between pairs of bacterial species were investigated using a logistic regression model to predict resistance in the presence of specific bacterial species. Bacterial species that tested positive in at least 30 samples were considered in the regression model: these 16 species were A. schaalii, A. urinae, A. omnicolens, CoNS, C. riegelii, E. faecalis, E. coli, K. oxytoca, K. pneumoniae, M. morganii, P. mirabilis, P. aeruginosa, S. aureus, S. agalactiae, U. urealyticum, VGS. Backward stepwise model selection was performed on the model with all main effects and all pairwise interactions using an enter significance level of α=0.10 and an exit significance level of α=0.05 to obtain the best fitting model. This model was used to predict resistance rates when a specific organism was present or when a specific pair of organisms were present.
(§4) Using the logistic regression model described above, the resistance rate for a pair of species was compared to the resistance rates for each species alone. […]

[1] = test system: bacterial organisms present in patient urine sample; test: Antibiotic Resistance (ABR) assay utilizing liquid growth medium; assay type: cell-based; details: liquid medium
Experimental: Urine samples suitable for processing with this assay are collected, transported, and stored using BD Vacutainer tubes or other suitable leak-proof sterile containers. Urine samples may be held at room temperature for 48 hours before test results are compromised.
Antibiotic stocks are stored at 2-8° C. and protected from direct sunlight. Prepared antibiotic stock solutions were aliquoted into a 96-deep well plate (ThermoFisher Scientific) to form a 50× Antibiotic Source Plate and then diluted 1:5 to form a 10× Antibiotic Source Plate, as shown in FIG. 12 where each well is identified by antibiotic name and concentration (μg/mL; 10× final concentration). […] One well was assigned sodium azide to ensure no bacterial growth would be observed in that well.
Twenty microliters of each antibiotic solution were aliquoted into the pre-determined wells of a 96-well microplate (VIS 96/F-PS, Eppendorf) from the 10× Antibiotic Source Plate to create ABR testing plates for inoculation. These ABR testing plates were allowed to sit for up to 24 hours before use at 2-8° C. in the dark.
At the time of testing, urine samples were centrifuged to concentrate any bacterial cells and then mixed with liquid Mueller-Hinton medium and incubated for 6-16 hours at 37° C. After this initial incubation, the sample is diluted to 0.5-0.6 McF in saline and then 500 μl of that suspension was added to […] of Mueller-Hinton medium. One-hundred and eighty microliters of the diluted sample is then aliquoted to each well of the ABR microplate already containing 10× antibiotic solution, bringing all of the antibiotics to the desired final concentration. The plate is then sealed and incubated for 12-16 hours at 37° C.
After incubation, the plate was removed from the incubator and carefully uncovered and the OD600 was determined for each appropriate well by spectrophotometer. Five separate measurements were taken of each well on a plate and the mean OD600 measurement calculated for each well.
Controls are depicted in Table 10.
The raw data was then “blanked” using the measurement obtained from the Na-Azide well, as depicted in Table 14.
(§5) To determine whether bacterial organisms present in the patient samples were resistant or sensitive to a particular antibiotic at a certain concentration, blanked OD readings were compared to a threshold OD600 of 0.065 (Table 15). An OD measurement greater than or equal to this threshold was designated Resistant (R) meaning bacterial organisms present in patient sample were resistant to that particular antibiotic at that certain concentration. Any OD measurement less than this threshold was designated Sensitive (S) meaning bacterial organisms present in patient sample were sensitive to that particular antibiotic at that certain concentration.

[2] = test system: E. coli and S. agalactiae; test: P-AST species-pair interaction on antibiotic resistance (logistic regression, HSAP/UP); assay type: cell-based, Escherichia coli; Streptococcus agalactiae; details: E. coli and S. agalactiae together v. expected from each species alone (HSAP/UP)
Experimental: as §1, §2, §3, §4

[3] = test system: bacterial organisms present in patient urine sample; test: Antibiotic Resistance (ABR) assay utilizing agar-containing medium; assay type: cell-based
Experimental: Urine samples suitable for processing with this assay are collected, transported, and stored using BD Vacutainer (gray top) tubes or other suitable leak-proof sterile container. Urine samples may be held at room temperature for 48 hours before test results are compromised.
Antibiotic stocks are stored at 2-8° C. and protected from direct sunlight. Prepared antibiotic stock solutions were aliquoted into a 96-deep well plate (Thermo Fisher Scientific) to form an Antibiotic Source Plate, as shown in FIG. 11 and identified by antibiotic name and concentration (μg/mL; 10× final concentration). […] One well was designated AB-blend which contained a combination of antibiotics to ensure there was no bacterial growth.
One hundred microliters of Mueller-Hinton agar medium was aliquoted into each appropriate well position of a 96-well microplate (VIS 96/F-PS, Eppendorf). The medium was allowed to solidify at room temperature for at least 10 min.
The antibiotics (10 μL) at various concentrations were then aliquoted into desired wells from the Antibiotic Source Plate. After the antibiotics were introduced to the agar medium, the ABR microplates were allowed to sit for at least 1 hr before use. If long-term storage is required, ABR microplates containing antibiotic-infuse agar are stored at 2-8° C. in the dark.
At the time of testing, urine samples were diluted 1:20 in sterile saline and vortexed. Each patient sample utilized a single ABR microplate. Five microliters of diluted patient sample were added to each well of the room temperature microplate, the plate was sealed and incubated for 16-18 hr at 37° C.
After incubation, the plate was removed from the incubator and carefully uncovered. Two-hundred microliters of deionized water were added to each well to suspend cells present above the agar and the plates incubated at room temperature for 30 min. After 30 min, 100 μl from each well was removed to a new plate and the OD600 was determined in a spectrophotometer. Five separate reads were taken of each plate and a mean OD600 measurement calculated.
Controls include: No-antibiotic control, Negative control plate, and AB-Blend. No antibiotic control: Any well containing medium that is not infused with antibiotics to ensure viability of bacterial cells present in patient urine samples and included in each plate. […] Negative control plate: Microplate containing antibiotic-infused agar medium without addition of patient sample or cultured bacterial organisms to ensure non-contamination of reagents. AB-Blend: One or more wells containing a combination of antibiotics to ensure there is no bacterial growth.
The raw data was then “blanked” using the measurement obtained from the AB-Blend well, as depicted in Table 5.
as §5, with “0.025” for “0.065”, “6). Any” for “15). An”

[4] = test system: E. coli and K. pneumoniae; test: P-AST species-pair interaction on antibiotic resistance (logistic regression, HSAP/UP); assay type: cell-based, Escherichia coli; Klebsiella pneumoniae
Experimental: as §1
P-AST was performed by aliquoting 1 mL of patient urine specimen into a 1.7 mL microcentrifuge tube. After centrifugation, the supernatant was aspirated and discarded, leaving approximately 100 or 50 μL (minimum volume left above pellet created from centrifugation) of patient sample in the microcentrifuge tube. […] Optical density of samples was then read on a DensiCHEK plate reader. […] A spectrophotometer (plate reader) is used to measure optical density of the samples in wells of antibiotics and inoculum in order to determine if there is growth in a well. […]

| SMILES | change in antibiotic resistance of the pair of organisms (E. coli and P. mirabilis) | Blanked (OD600 minus Na-Azide well) ([1]; antibiotic 2 μg/mL) | Mean (OD600) ([1]; antibiotic 2 μg/mL) | Blanked (OD600 minus Na-Azide well) ([1]; antibiotic 8 μg/mL) | Mean (OD600) ([1]; antibiotic 8 μg/mL) | Blanked (OD600 minus Na-Azide well) ([1]; antibiotic 16 μg/mL) | Mean (OD600) ([1]; antibiotic 16 μg/mL) | Blanked (OD600 minus Na-Azide well) ([1]; antibiotic 32 μg/mL) | Mean (OD600) ([1]; antibiotic 32 μg/mL) | Blanked (OD600 minus Na-Azide well) ([1]; antibiotic 4 μg/mL) | Mean (OD600) ([1]; antibiotic 4 μg/mL) | Blanked (OD600 minus AB-Blend well) ([3]; antibiotic 4 μg/mL) | Mean (OD600) ([3]; antibiotic 4 μg/mL) | Blanked (OD600 minus AB-Blend well) ([3]; antibiotic 8 μg/mL) | Mean (OD600) ([3]; antibiotic 8 μg/mL) | further results |
| --- | --- | --- | --- | --- | --- | --- | --- | --- | --- | --- | --- | --- | --- | --- | --- | --- |
| Cc1nnc(SCC2=C(C(=O)O)N3C(=O)[C@@H](NC(=O)Cn4cnnn4)[C@H]3SC2)s1 [Cefazolin, cefazolin] | decrease in resistance; also recorded: decreased odds of resistance | 0.1882 | 0.2339 | 0.1633 | 0.2090 | 0.1011 | 0.1468 | 0.0113 | 0.0570 | – | – | – | – | – | – | – |
| CC(C)(O/N=C(\C(=O)N[C@@H]1C(=O)N2C(C(=O)[O-])=C(C[n+]3ccccc3)CS[C@H]12)c1csc(N)n1)C(=O)O [Ceftazidime, ceftazidime] | decrease in resistance; also recorded: decreased odds of resistance | – | – | 0.2150 | 0.2607 | 0.2016 | 0.2473 | 0.1980 | 0.2437 | 0.2000 | 0.2457 | – | – | – | – | change in antibiotic resistance of the pair of organisms [2]: decrease in resistance; also recorded: decreased odds of resistance |
| CN(C)[C@@H]1C(O)=C(C(N)=O)C(=O)[C@@]2(O)C(O)=C3C(=O)c4c(O)cccc4[C@@](C)(O)[C@H]3C[C@@H]12 [tetracycline] | – | 0.1627 | 0.2084 | 0.1139 | 0.1596 | 0.0082 | 0.0539 | – | – | 0.1767 | 0.2224 | 0.3920 | 0.4304 | 0.4012 | 0.4396 | Blanked (OD600 minus AB-Blend well) ([3]; antibiotic 16 μg/mL): 0.4166; Mean (OD600) ([3]; antibiotic 16 μg/mL): 0.4550 |
| O=C1CN(/N=C/c2ccc([N+](=O)[O-])o2)C(=O)N1 [Nitrofurantoin, nitrofurantoin] | – | – | – | – | – | – | – | 0.0095 | 0.0552 | – | – | – | – | – | – | Blanked (OD600 minus AB-Blend well) ([3]; antibiotic 32 μg/mL): 0.0003; Mean (OD600) ([3]; antibiotic 32 μg/mL): 0.0387; Blanked (OD600 minus AB-Blend well) ([3]; antibiotic 64 μg/mL): 0.0002; Mean (OD600) ([3]; antibiotic 64 μg/mL): 0.0386 |
| N[C@@H](C(=O)N[C@@H]1C(=O)N2C(C(=O)O)=C(Cl)CS[C@H]12)c1ccccc1 [Cefaclor, cefaclor] | decrease in resistance; also recorded: decreased odds of resistance | – | – | 0.1875 | 0.2332 | – | – | 0.0143 | 0.0600 | – | – | – | – | – | – | change in antibiotic resistance of the pair of organisms ([4]; E. coli and K. pneumoniae together v. expected from each species alone (HSAP/UP)): increased odds of resistance; also recorded: higher resistance; also recorded: increased the probability of antibiotic resistance; also recorded: increase in resistance; resistance rate of the combination compared with each species alone ([4]; predicted probabilities, FIG. 1, HSAP model): higher than either E. coli or K. pneumoniae alone |
| C[C@H]1COc2c(N3CCN(C)CC3)c(F)cc3c(=O)c(C(=O)O)cn1c23 [Levofloxacin, levofloxacin] | – | −0.0021 | 0.0436 | −0.0014 | 0.0443 | – | – | – | – | −0.0026 | 0.0431 | 0.0360 | 0.0744 | 0.0028 | 0.0412 | Blanked (OD600 minus AB-Blend well) ([3]; antibiotic 1 μg/mL): 0.0024; Mean (OD600) ([3]; antibiotic 1 μg/mL): 0.0408; Blanked (OD600 minus AB-Blend well) ([3]; antibiotic 2 μg/mL): 0.0017; Mean (OD600) ([3]; antibiotic 2 μg/mL): 0.0401; Blanked (OD600 minus Na-Azide well) ([1]; antibiotic 1 μg/mL): 0.0723; Mean (OD600) ([1]; antibiotic 1 μg/mL): 0.1180 |
